The nature of data set [1]: Oral bioavailability in rat at 3 mg/kg. Format: ADME, organism-based. The conditions noted are these: in vivo.
Data set [2] deals with Hepatitis C virus. Briefly: Antiviral activity against HCV1a H77 infected in human HuH7 cells assessed as inhibition of viral replication after 4 days by luciferase reporter gene assay. Type of data set: functional, organism-based, Hepacivirus hominis. The conditions noted are these: genotype 1a H77, Huh-7, 96 h.
Data set [3] in a line: Cmax in rat at 3 mg/kg, po. The conditions noted are these: in vivo. More on the design: dose 3 mg/kg, route oral. Format: ADME, organism-based.
A short description of data set [4]: Tmax in rat at 3 mg/kg, po. Type of data set: ADME, organism-based. The conditions noted are these: in vivo. More on the design: dose 3 mg/kg, route oral.
The nature of data set [5]: AUC in rat at 3 mg/kg, po. The conditions noted are these: plasma. Format: ADME, organism-based. More on the design: dose 3 mg/kg, route oral.
Data set [6] is described as follows: Metabolic stability in human liver microsomes assessed as compound remaining after 30 mins. Format: ADME. The following applies: read-out: Stability. Background: Microsomes from liver hold many membrane-bound enzymes, among them those of drug oxidation.
For data set [7], the system named is Hepatitis C virus. Briefly: Ratio of EC50 for HCV1a H77 infected in human HuH7 cells in presence of 40% human plasma to EC50 for HCV1a H77 infected in human HuH7 cells in absence of 40% human plasma. Format: functional, Hepacivirus hominis, genotype 1a H77, Huh-7.
Data set [8] is described as follows: Metabolic stability in rat liver microsomes assessed as compound remaining after 30 mins. The following applies: read-out: Stability. Format: ADME.
Data set [9] in a line: Lipophilicity, log D of the compound at pH 7.4 by HPLC analysis. The following applies: buffer. Type of data set: physicochemical.
The nature of data set [10]: Clearance in rat at 3 mg/kg, iv. More on the design: dose 3 mg/kg, route intravenous. Type of data set: ADME, organism-based. The following applies: in vivo.
The subject of data set [11] is Hepatitis C virus. Briefly: Antiviral activity against HCV1b Con1 infected in human HuH7 cells assessed as inhibition of viral replication after 4 days by luciferase reporter gene assay. Type of data set: functional, organism-based, Hepacivirus hominis. The following applies: isolate Con1, Huh-7, 96 h.
Data set [12] relates to Hepatitis C virus. Briefly: Antiviral activity against HCV1a H77 infected in human HuH7 cells assessed as inhibition of viral replication after 4 days by luciferase reporter gene assay in presence of 40% human plasma. The following applies: genotype 1a H77, Huh-7, Plasma, 96 h. Type of data set: functional, organism-based, Hepacivirus hominis. For orientation: A reporter such as luciferase makes a cellular process visible.

In data set [13] the test system is Hepatitis C virus. Briefly: Antiviral activity against HCV1b Con1 infected in human HuH7 cells assessed as inhibition of viral replication after 4 days by luciferase reporter gene assay in presence of 40% human plasma. Format: functional, organism-based, Hepacivirus hominis. The following applies: isolate Con1, Huh-7, Plasma, 96 h.
Data set [14] has as its system Hepatitis C virus. Briefly: Ratio of EC50 for HCV1b Con1 infected in human HuH7 cells in presence of 40% human plasma to EC50 for HCV1b Con1 infected in human HuH7 cells in absence of 40% human plasma. Format: functional, Hepacivirus hominis, isolate Con1, Huh-7.
Data set [15] in a line: Kinetic solubility of the compound in 10 mM of phosphate buffer at pH 7.2 by CLND method. The conditions noted are these: read-out: Kinetic_solubility. Type of data set: physicochemical.
A short description of data set [16]: Half life in rat at 3 mg/kg, iv. The conditions noted are these: in vivo. Format: ADME, organism-based. On the set-up: dose 3 mg/kg, route intravenous.
Data set [17] is described as follows: Half life in rat at 3 mg/kg, po. Format: ADME, organism-based. More on the design: dose 3 mg/kg, route oral. The conditions noted are these: in vivo.
Data set [18] is described as follows: Volume of distribution at steady state in rat at 3 mg/kg, iv. Format: ADME, organism-based. The following applies: in vivo, read-out: Vdss. More on the design: dose 3 mg/kg, route intravenous.

≈ marks a conversion by molar mass, not a printed value.

The compound `COC(=O)N[C@H](C(=O)N1CCC[C@H]1C(=O)Nc1ccc([C@@H]2CC[C@@H](c3ccc(NC(=O)[C@@H]4CCCN4C(=O)[C@@H](NC(=O)OC)C(C)(C)C)cc3)N2c2ccc(F)cc2)cc1)C(C)(C)C` returned a bioavailability in data set [1] of 23%. The EC50 in the data set on Hepatitis C virus [2] was 0.263 nM; in the data set with Hepatitis C virus [11] it was 0.006 nM; in the data set with Hepatitis C virus [12], 15.5 nM; in the data set on Hepatitis C virus [13], 0.528 nM. Moreover, the Cmax in [3] was 110 ng/mL. The Tmax in data set [4] came to 3 h. This compound also yielded an AUC in data set [5] of 1850 ng·h/mL. The remaining at 0.5 h in [6] was determined as 52%; in [8], 56%. For the same compound, the “Ratio EC50” value is on record as 59 in the data set with Hepatitis C virus [7] and 88 in the data set on Hepatitis C virus [14]. Further, the logD in data set [9] stood at 5.2. The clearance in data set [10] was below 6.5 mL/min/kg. Further, the solubility kinetic in [15] worked out at 4.4 µM (≈ 3.89 µg/mL).

Consider `COC(=O)N[C@H](C(=O)N1CCC[C@H]1C(=O)Nc1ccc([C@@H]2CC[C@@H](c3ccc(NC(=O)[C@@H]4CCCN4C(=O)[C@@H](NC(=O)OC)[C@@H](C)OC)cc3)N2c2ccc(F)cc2)cc1)[C@@H](C)OC`, for which the results for the half-life in [16] and in data set [17] were 0.6 h and 1.1 h, respectively. The bioavailability in data set [1] was determined as 14%. In addition, the EC50 was 0.168 nM with Hepatitis C virus [2], 0.086 nM in the data set with Hepatitis C virus [11], 1.4 nM in the data set with Hepatitis C virus [12] and 0.539 nM with Hepatitis C virus [13]. The Cmax in [3] stood at 70 ng/mL. Also, the time of peak concentration (Tmax) in data set [4] was 0.7 h. The compound also had an area under the curve (AUC) in data set [5] of 120 ng·h/mL. Moreover, the remaining at 0.5 h is 54% in [6] and 47% in data set [8]. Moreover, the “Ratio EC50” value with Hepatitis C virus [7] is on record as 8; in the data set on Hepatitis C virus [14] it was 6. Besides, the log distribution coefficient (logD) in data set [9] is 3. Moreover, the clearance in data set [10] is 56.7 mL/min/kg. The solubility kinetic in [15] was 9.6 µM (≈ 8.52 µg/mL). In [18], the Vd worked out at 1.3 L/kg.

For `COC(=O)N[C@H](C(=O)N1CCC[C@H]1C(=O)Nc1ccc([C@H]2CC[C@H](c3ccc(NC(=O)[C@@H]4CCCN4C(=O)[C@@H](NC(=O)OC)[C@@H](C)OC)cc3)N2c2ccc(F)cc2)cc1)[C@@H](C)OC`, the values for the half-life in data set [16] and in data set [17] were 0.4 h and 0.9 h, respectively. In addition, the bioavailability in data set [1] amounted to 15%. In addition, the half-maximal effective concentration (EC50) was determined as 0.794 nM in the data set on Hepatitis C virus [2], 0.134 nM in the data set on Hepatitis C virus [11], 1.95 nM in the data set with Hepatitis C virus [12] and 1.33 nM with Hepatitis C virus [13]. In data set [3], the Cmax was 120 ng/mL. For the same compound, in data set [4], the Tmax was 0.5 h. Further, the AUC in [5] is 170 ng·h/mL. Further, the remaining at 0.5 h in [6] amounted to 48%; in data set [8] it was 46%. For the same compound, the “Ratio EC50” value with Hepatitis C virus [7] came out at 2; in the data set on Hepatitis C virus [14] it was 10. This compound had a logD in [9] of 3. The same compound gave a clearance in data set [10] of 45 mL/min/kg. In [15], the solubility kinetic stood at 7.7 µM (≈ 6.84 µg/mL). The Vd in data set [18] is 0.9 L/kg.

As for `COC(=O)N[C@H](C(=O)N1CCC[C@H]1C(=O)Nc1ccc([C@H]2CC[C@H](c3ccc(NC(=O)[C@@H]4CCCN4C(=O)[C@@H](NC(=O)OC)C(C)C)cc3)N2c2ccc(C(C)(C)C)cc2)cc1)C(C)C`, the half-life in [16] is 5.5 h; in data set [17] it was 8.6 h. In data set [1], this compound returned a bioavailability of 3.1%. The concentration giving a half-maximal response (EC50) is 0.138 nM in the data set with Hepatitis C virus [2], 0.0088 nM in the data set with Hepatitis C virus [11], 0.986 nM with Hepatitis C virus [12] and 0.09 nM in the data set with Hepatitis C virus [13]. In [3], this compound registered a Cmax of 20 ng/mL. Also, in [4], the Tmax turned out to be 4.7 h. The AUC in data set [5] came to 220 ng·h/mL. Besides, the “Ratio EC50” value was determined as 7 in the data set with Hepatitis C virus [7] and 10 with Hepatitis C virus [14]. For the same compound, in data set [8], the remaining at 0.5 h is 65%. Also, the logD in data set [9] worked out at 5.2. Further, the clearance in [10] was 7.17 mL/min/kg. In addition, in data set [15], the solubility kinetic stood at 1.8 µM (≈ 1.61 µg/mL). Further, the Vd in data set [18] was found to be 2.2 L/kg.

As for `COC(=O)N[C@H](C(=O)N1CCC[C@H]1C(=O)Nc1ccc([C@@H]2CC[C@@H](c3ccc(NC(=O)[C@@H]4CCCN4C(=O)[C@@H](NC(=O)OC)C(C)(C)C)cc3)N2c2ccc(C(C)(C)C)cc2)cc1)C(C)(C)C`, the half-life in data set [16] is 8.2 h; in [17], 11 h. For the same compound, the bioavailability in data set [1] turned out to be 7.2%. Further, the EC50 amounted to 0.021 nM in the data set with Hepatitis C virus [2], 0.0022 nM with Hepatitis C virus [11], 1.06 nM in the data set with Hepatitis C virus [12] and 0.117 nM in the data set on Hepatitis C virus [13]. Moreover, the highest concentration (Cmax) in data set [3] stood at 90 ng/mL. For the same compound, in [4], the Tmax amounted to 5.3 h. The exposure (AUC) in data set [5] was 1250 ng·h/mL. The remaining at 0.5 h in [6] turned out to be 78%; in data set [8], 87%. Besides, the clearance in data set [10] was 2.83 mL/min/kg. For the same compound, the solubility kinetic in data set [15] was 1.2 µM (≈ 1.11 µg/mL). In data set [18], the Vd stood at 2.3 L/kg.

As to `COC(=O)N[C@H](C(=O)N1CCC[C@H]1C(=O)Nc1ccc([C@H]2CC[C@H](c3ccc(NC(=O)[C@@H]4CCCN4C(=O)[C@@H](NC(=O)OC)C(C)(C)C)cc3)N2c2ccc(C(C)(C)C)cc2)cc1)C(C)(C)C`, the half-life in data set [16] is 10.2 h; in [17], 12.4 h. In data set [1], this compound showed a bioavailability of 7.2%. In addition, the EC50 with Hepatitis C virus [2] came out at 0.123 nM; in the data set on Hepatitis C virus [11] it was 0.0084 nM; in the data set with Hepatitis C virus [12], 4.31 nM; in the data set with Hepatitis C virus [13] it was 0.344 nM. The compound also displayed a Cmax in data set [3] of 90 ng/mL. Besides, in [4], the Tmax turned out to be 2.5 h. The AUC in [5] was determined as 1390 ng·h/mL. For the same compound, the results for the remaining at 0.5 h in data set [6] and in data set [8] were 80% and 83%, respectively. Moreover, the clearance in data set [10] was 2.83 mL/min/kg. Besides, in [15], the solubility kinetic came to 2.2 µM (≈ 2.03 µg/mL). Moreover, in data set [18], the Vd turned out to be 1.7 L/kg.

The bioavailability is dose-corrected exposure relative to a reference, in per cent. Broadly, the EC50 is the concentration at which the effect is half-maximal. The term Cmax denotes the peak of the concentration-time curve. The term Tmax denotes the time from dosing to the highest level. In general, AUC refers to the area under the concentration-time curve, a measure of exposure. As usually defined, the logD is the decadic logarithm of the distribution of all forms, ionised or not, between an organic phase and buffer at a given pH. Higher therefore signals higher lipophilicity. As usually defined, the clearance is the rate of elimination divided by the concentration. Usually half-life stands for the time needed for the level to fall by half in the phase considered. A high value points to slow decline.

The record behind these values is ChEMBL document CHEMBL3124779, “Discovery of ABT-267, a pan-genotypic inhibitor of HCV NS5A” (J Med Chem, 2014).
